Data from US4298739A, “Novel carbostyril derivatives” (priority 1977, dated 1981).
Like-named read-outs stand apart in the source and are kept apart here.

Key:
[1] = target: T1, cyclic AMP phosphodiesterase (Oryctolagus cuniculus, UniProt G1ST54); test: Obstructive action against cyclic AMP phosphodiesterase; format: biochemical, rabbit
T1 construct: the supernatant was collected to use it as a crude enzyme solution; from tissue; host or cells: rabbit platelets (from platelet-rich plasma), 100,000 xg supernatant, DEAE-cellulose fraction
T1 sequence (G1ST54 1-1128): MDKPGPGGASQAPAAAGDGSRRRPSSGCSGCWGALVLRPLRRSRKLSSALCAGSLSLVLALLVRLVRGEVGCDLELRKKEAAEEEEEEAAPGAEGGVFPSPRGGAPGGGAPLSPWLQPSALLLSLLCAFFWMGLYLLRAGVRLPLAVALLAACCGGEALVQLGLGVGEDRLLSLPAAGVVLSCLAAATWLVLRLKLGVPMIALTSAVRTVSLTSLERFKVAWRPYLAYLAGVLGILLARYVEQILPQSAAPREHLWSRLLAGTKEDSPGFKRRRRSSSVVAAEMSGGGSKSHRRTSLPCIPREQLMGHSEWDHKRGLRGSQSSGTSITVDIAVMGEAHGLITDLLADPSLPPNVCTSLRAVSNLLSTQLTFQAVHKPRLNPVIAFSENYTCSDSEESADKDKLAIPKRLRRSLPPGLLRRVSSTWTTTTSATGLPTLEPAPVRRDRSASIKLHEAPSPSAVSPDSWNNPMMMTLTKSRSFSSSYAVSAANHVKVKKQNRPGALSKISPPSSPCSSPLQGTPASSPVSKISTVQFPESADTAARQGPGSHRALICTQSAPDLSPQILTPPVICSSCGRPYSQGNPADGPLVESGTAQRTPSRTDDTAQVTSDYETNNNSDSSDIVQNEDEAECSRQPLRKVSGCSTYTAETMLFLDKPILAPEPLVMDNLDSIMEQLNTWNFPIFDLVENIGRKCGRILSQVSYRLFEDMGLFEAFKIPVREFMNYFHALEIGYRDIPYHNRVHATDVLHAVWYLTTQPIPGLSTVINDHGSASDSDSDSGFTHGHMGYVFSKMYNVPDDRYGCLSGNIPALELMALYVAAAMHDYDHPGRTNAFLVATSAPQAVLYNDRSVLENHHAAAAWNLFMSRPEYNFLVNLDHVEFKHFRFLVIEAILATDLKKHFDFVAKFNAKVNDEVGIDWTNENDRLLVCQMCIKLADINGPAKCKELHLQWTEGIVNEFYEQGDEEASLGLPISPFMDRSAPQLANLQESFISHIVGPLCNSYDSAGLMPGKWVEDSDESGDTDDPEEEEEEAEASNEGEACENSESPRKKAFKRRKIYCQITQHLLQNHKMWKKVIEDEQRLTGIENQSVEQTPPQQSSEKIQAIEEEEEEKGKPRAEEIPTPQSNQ
Description: The obstructive action against cyclic AMP phosphodiesterase was measured according to the activity measuring method described in "Biochimica et Biophysica Acta", Vol. 429, pp. 485-497 (1976) and "Biochemical Medicine", Vol. 10, pp. 301-311 (1974).
That is, for determining the obstructive activity against cyclic AMP phosphodiesterase, 10 ml of a solution obtained by adding 1 mmol of MgCl2 into 50 mmol of tris-hydrochloric acid buffer with pH 7.4 was added to the platelets obtained by further centrifuging the abovesaid rabbit PRP at 3,000 r.p.m. for 10 minutes, and the suspended platelets were ground by a Teflon potter type homogenizer. This was followed by two times of freezing and thawing treatment and 300-second fracturing with 200 watt supersonic waves. After additional 60-minute centrifugation with 100,000 xg, the supernatant was collected to use it as a crude enzyme solution.
10 Milliliters of this crude buffer solution was added to a 1.5×20 cm DEAE-cellulose column which has previously been buffered with 50 mmol of tris-acetate buffer (pH 6.0), followed by washing and elution with 30 ml of 50 mmol tris-acetate buffer, and this buffer solution was subjected to linear gradient elution with 0 to 0.5 moles of sodium acetate-tris-acetatebuffer. The flow rate was 0.5 ml/min, and 5 ml of each fraction was batched out. […] This fraction was used as cyclic AMP phosphodiesterase.
0.1 Milliliter of an aqueous solution of each test compound of a specified concentration was mixed with 40 mmol of tris-hydrochloric acid buffer (pH 8.0, containing 50 μg of cow serum albumin and 4 mmol of MgCl2) containing predetermined 1.0 μmol of cyclic AMP (tritium cyclic AMP), and 0.2 ml of this mixed solution was used as substrate solution.
0.2 Milliliter of the above-prepared cyclic AMP phosphodiesterase of a predetermined concentration was added to said substrate solution and the mixture was reaction at 30° C. for 20 minutes, producing tritium 5'-AMP from the tritium cyclic AMP.
The reaction system was then immersed in boiling water for 2 minutes to stop the reaction, and then this reaction solution was cooled in ice water and, for converting the produced tritium 5'-AMP into tritium adenosine, the solution was added with 0.05 ml (1 mg/ml) of snake poison as 5'-nucleotidase and reacted at 30° C. for 10 minutes. The whole amount of this reaction solution was then added to a cation exchange resin (AG 500 W×4, 200-400 meshes, manufactured by Bio-Rad Co., column size: 0.5×1.5 cm), and the produced tritium anodesine alone was allowed to combine, washed with 6 ml of distilled water and eluted with 1.5 ml of 3 N-ammonia water. The whole quantity of the elutant was added with 10 ml of a triton-toluene type scintillator and the produced tritium adenosine was measured by a liquid scintillation counter to determine the phosphodiesterase activity.
In this way, the phosphodiesterase activation value (Vs) of the test compounds of the respective concentrations was determined, and the phosphodiesterase obstruction rate (%) was determined from said activation value (Vs) and control value (Vc) (obtained from water not containing any test compound) from the following formula: [formula]

[2] = Acute toxicity test, oral administration to mice; format: in vivo; settings: mouse, in vivo, Male mice
Description: The test compounds were administered orally to the mice and LD50 (mg/kg) of the compounds was determined.

[3] = pH 8, read-out: phosphodiesterase obstruction rate

SMILES | inhibition at 10 µM ([1]; 10^-5 mole, 1.0 μmol cyclic AMP, pH 8.0, 30° C., read-out: phosphodiesterase obstruction rate) | inhibition at 1 µM ([1]; 10^-6 mole, 1.0 μmol cyclic AMP, pH 8.0, 30° C., read-out: phosphodiesterase obstruction rate) | inhibition at 0.1 µM ([1]; 10^-7 mole, 1.0 μmol cyclic AMP, pH 8.0, 30° C., read-out: phosphodiesterase obstruction rate) | inhibition at 0.01 µM ([1]; 10^-8 mole, 1.0 μmol cyclic AMP, pH 8.0, 30° C., read-out: phosphodiesterase obstruction rate) | inhibition at 0.001 µM ([1]; 10^-9 mole, 1.0 μmol cyclic AMP, pH 8.0, 30° C., read-out: phosphodiesterase obstruction rate) | LD50 [2] | inhibition at 0.001 µM [1, 3] | inhibition at 0.01 µM [1, 3] | inhibition at 0.1 µM [1, 3] | inhibition at 1 µM [1, 3] | inhibition at 10 µM [1, 3]
CC(=O)OC1CCC(N(C)C(=O)CCCOc2ccc3[nH]c(=O)ccc3c2)CC1 (stereo not drawn) [compound 3, 6-{3-[N-Methyl-N-(4-acetyloxycyclohexyl)aminocarbonyl]propoxy}carbostyril] | 98.5% | 95.5% | 88.4% | 61.1% | 13.4% | > 1000 mg/kg | – | – | – | – | –
CN(C(=O)CCCOc1ccc2[nH]c(=O)ccc2c1)C1CCCCC1 [compound 16, 6-[3-(N-Methyl-N-cyclohexylaminocarbonyl)propoxy]carbostyril] | – | – | – | – | – | > 1000 mg/kg | 7.1% | 22.3% | 79.3% | 87.5% | 80.5%
